# Experimental data reported in patent US8524712B2, “Triazinone and diazinone derivatives useful as HSP90 inhibitors” (Synta Pharmaceuticals Corp., priority 2007, dated 2013).
# pIC50: −log10 of the molar value.
# Tested on: MV-4-11 cells
# Assay: IC50 of Table 2: Method 2, MV-4-11 cell survival (Cell Counting Kit-8), reported as Her2 degradation / inhibition of Hsp90
# Assay type: cell-based
# Conditions: Homo sapiens, MV4-11, 72 hours at 37° C., text calls it Her2 degradation, table title inhibition of Hsp90
# Description: MV-4-11 cells (20,000 cells/well) were cultured in 96-well plates and maintained at 37° C. for several hours. The cells were treated with a compound of the invention or 17AAG (a positive control) at various concentrations and incubated at 37° C. for 72 hours. Cell survival was measured with Cell Counting Kit-8 (Dojindo Laboratories, Cat. #CK04).
row,Structure (SMILES),pIC50
1,"CCOC(=O)C1=C(C)NC(=O)NC1c1cc(C(C)C)c(O)cc1O (stereo not drawn) [Compound 1, ethyl 4-(2,4-dihydroxy-5-isopropylphenyl)-6-methyl-2-oxo-1,2,3,4-tetrahydropyrimidine-5-carboxylate]",< 4.00
2,"CCN1CC2=C(C1=O)C(c1cc(C(C)C)c(O)cc1O)NC(=O)N2 (stereo not drawn) [Compound 2, 4-(2,4-dihydroxy-5-isopropylphenyl)-6-ethyl-3,4,6,7-tetrahydro-1H-pyrrolo[3,4-d]pyrimidine-2,5-dione]",< 4.00
3,"CC(C)c1cc(C2NC(=O)NC3=C2C(=O)OC3)c(O)cc1O (stereo not drawn) [Compound 3, 4-(2,4-dihydroxy-5-isopropylphenyl)-3,4-dihydrofuro[3,4-d]pyrimidine-2,5(1H,7H)-dione]",< 3.30
4,"CC(C)c1cc(C2=NNC(=O)CN2c2ccc3c(ccn3C)c2)c(O)cc1O [Compound 4, 3-(2,4-dihydroxy-5-isopropylphenyl)-4-(1-methyl-1H-indol-5-yl)-4,5-dihydro-1,2,4-triazin-6(1H)-one]",< 4.30
5,"CC(C)c1cc(C2=NNC(=O)CN2Cc2ccc3c(c2)OCO3)c(O)cc1O [Compound 5, 4-(benzo[d][1,3]dioxol-5-ylmethyl)-3-(2,4-dihydroxy-5-isopropylphenyl)-4,5-dihydro-1,2,4-triazin-6(1H)-one]",4.42
6,"CC(C)c1cc(C2=NNC(=O)CN2c2ccc(N3CCOCC3)cc2)c(O)cc1O [Compound 6, 3-(2,4-dihydroxy-5-isopropylphenyl)-4-(4-morpholinophenyl)-4,5-dihydro-1,2,4-triazin-6(1H)-one]",< 4.30
7,"CC(C)c1cc(C2=NNC(=O)CN2c2ccc(N(C)C)cc2)c(O)cc1O [Compound 7, 3-(2,4-dihydroxy-5-isopropylphenyl)-4-(4-(dimethylamino)phenyl)-4,5-dihydro-1,2,4-triazin-6(1H)-one]",< 4.30
8,"COc1ccc(CN2CC(=O)NN=C2c2cc(C(C)C)c(O)cc2O)cc1 [Compound 8, 3-(2,4-dihydroxy-5-isopropylphenyl)-4-(4-methoxybenzyl)-4,5-dihydro-1,2,4-triazin-6(1H)-one]",< 4.30

# Tested on: Her2
# Assay: Degradation of Her2 in BT-474 cells, Method 1 (Western blot)
# Assay type: cell-based, human
# Conditions: 0.5 μM, overnight
# Description: Human high-Her2 breast carcinoma BT474 (HTB-20), SK-BR-3 (HTB-30) and MCF-7 breast carcinoma (HTB-22) from American Type Culture Collection, VA, USA were grown in Dulbecco's modified Eagle's medium with 4 mM L-glutamine and antibiotics (100 IU/ml penicillin and 100 ug/ml streptomycine; GibcoBRL). To obtain exponential cell growth, cells were trypsinized, counted and seeded at a cell density of 0.5×10^6 cells/ml regularly, every 3 days. All experiments were performed on day 1 after cell passage.
# BT-474 cells are treated with 0.5 μM, 2 μM, or 5 μM of 17AAG (a positive control) or 0.5 μM, 2 μM, or 5 μM of a compound of the invention overnight in DMEM medium. After treatment, each cytoplasmic sample is prepared from 1×10^6 cells by incubation of cell lysis buffer (#9803, cell Signaling Technology) on ice for 10 minutes. The resulting supernatant used as the cytosol fractions is dissolved with sample buffer for SDS-PAGE and run on a SDS-PAGE gel, blotted onto a nitrocellulose membrane by using semi-dry transfer. Non-specific binding to nitrocellulose is blocked with 5% skim milk in TBS with 0.5% Tween at room temperature for 1 hour, then probed with anti-Her2/ErB2 mAb (rabbit IgG, #2242, Cell Signaling) and anti-Tubulin (T9026, Sigma) as housekeeping control protein. […]
row,Structure (SMILES),degradation of Her2
1,"C=CCNC1=C2C[C@@H](C)C[C@H](OC)[C@H](O)[C@@H](C)/C=C(\C)[C@H](OC(N)=O)[C@@H](OC)/C=C\C=C(/C)C(=O)NC(=CC1=O)C2=O [Compound 17AAG, 17-allylamino-17-demethoxygeldanamycin]",partial degradation
